Values of other authors in US6686348B2, “Metalloprotease inhibitors” (Les Laboratoires Servier, priority 2000, dated 2004).

Test system: ovarian cancers
Settings: Becket et al., DDT 1996

CNC(=O)[C@H](Cc1ccccc1)NC(=O)[C@H](CC(C)C)[C@H](CSc1cccs1)C(=O)NO [BB94]
anti-tumour activity in clinical use: active against ovarian cancers
